Measured values taken from the supplement of paper PMC10307832.

How the values were obtained:
Assay in all cases: relative viability (nuclei count vs DMSO), 5 days (fraction); higher = more cells survive
AZD6482 + Trametinib = compound: Cc1cc([C@@H](C)Nc2ccccc2C(=O)O)c2nc(N3CCOCC3)cc(=O)n2c1 [AZD6482] + CC(=O)Nc1cccc(-n2c(=O)n(C3CC3)c(=O)c3c(Nc4ccc(I)cc4F)n(C)c(=O)c(C)c32)c1 [Trametinib] (partner 0.02 µM)
In short: (§1)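 Nuclei were stained with Hoechst during a one-step fixation (final 0.05% Triton X-100, 1% formaldehyde, 1 ug/ml Hoechst) carried out 5 days after dosing, then counted on 4× images. The cells, lung cancer lines in 1536-well plates, had been dosed by pin tool the day after seeding with one drug alone or a fixed anchor-drug dose plus five library-drug doses (not always all listed) in √10 steps. Relative viability is the nuclei count in treated wells divided by that in vehicle wells, and each value is the median of duplicate plates.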

[1] = compound: COc1cc2nc(N3CCCN(C)CC3)nc(NC3CCN(Cc4ccccc4)CC3)c2cc1OC + COc1cc2c(Oc3ccc(NC(=O)C4(C(=O)Nc5ccc(F)cc5)CC4)cc3F)ccnc2cc1OCCCN1CCOCC1 [Foretinib] (partner 0.25 µM)
In short: as §1

[2] = compound: COc1cc2nc(N3CCCN(C)CC3)nc(NC3CCN(Cc4ccccc4)CC3)c2cc1OC + C[C@@H](Oc1cc(-c2cnn(C3CCNCC3)c2)cnc1N)c1c(Cl)ccc(F)c1Cl [Crizotinib] (partner 1 µM)
In short: as §1

AZD6482 + Pictilisib = compound: Cc1cc([C@@H](C)Nc2ccccc2C(=O)O)c2nc(N3CCOCC3)cc(=O)n2c1 [AZD6482] + CS(=O)(=O)N1CCN(Cc2cc3nc(-c4cccc5[nH]ncc45)nc(N4CCOCC4)c3s2)CC1 [Pictilisib] (partner 1 µM)
In short: as §1

Cell Line	relative viability (AZD6482 + Trametinib; first compound 0.08 µM)	relative viability (AZD6482 + Trametinib; first compound 0.253 µM)	relative viability (AZD6482 + Trametinib; first compound 0.8 µM)	relative viability (AZD6482 + Trametinib; first compound 2.53 µM)	relative viability (AZD6482 + Trametinib; first compound 8 µM)	relative viability ([1]; first compound 0.2 µM)	relative viability ([1]; first compound 0.6325 µM)	relative viability ([1]; first compound 2 µM)	relative viability ([1]; first compound 6.325 µM)	relative viability ([2]; first compound 0.2 µM)	relative viability ([2]; first compound 0.6325 µM)	relative viability ([2]; first compound 2 µM)	relative viability ([2]; first compound 6.325 µM)	relative viability (AZD6482 + Pictilisib; first compound 0.08 µM)	relative viability (AZD6482 + Pictilisib; first compound 0.253 µM)	relative viability (AZD6482 + Pictilisib; first compound 0.8 µM)	relative viability (AZD6482 + Pictilisib; first compound 2.53 µM)	relative viability (AZD6482 + Pictilisib; first compound 8 µM)
NCI-H2342	0.682	0.685	0.799	0.561	0.622	1.1	1	1.17	1.1	–	–	–	–	–	–	–	–	–
HCC-15	0.356	0.348	0.33	0.271	0.273	1.1	1	1.06	0.853	0.817	0.82	0.823	0.711	0.642	0.651	0.766	0.641	0.849
A-427	0.628	0.783	0.691	0.548	0.612	0.918	0.977	1.13	1.09	0.861	0.781	1.04	0.838	0.655	0.697	0.735	0.601	0.682
NCI-H2228	0.342	0.579	0.457	0.484	0.494	1.02	0.711	0.729	0.499	0.529	0.396	0.479	0.334	0.368	0.691	0.266	0.387	0.387
NCI-H1734	0.613	0.656	0.565	0.519	0.491	0.934	0.846	0.849	0.91	0.66	0.602	0.687	0.661	0.395	0.452	0.485	0.305	0.408
PC-14	0.704	0.747	0.794	0.455	0.622	1.01	0.959	0.939	0.885	0.932	0.883	1.08	0.83	0.575	0.632	0.591	0.376	0.771
NCI-H1915	0.257	0.27	0.29	0.239	0.226	1.05	1.01	1.1	1.12	0.909	0.825	0.947	0.866	0.886	0.916	1.03	0.79	0.909
NCI-H1666	0.766	0.944	0.808	0.81	0.835	0.897	0.969	1.13	0.932	0.969	0.958	0.981	0.886	0.437	0.547	0.558	0.437	0.405
HCC-366	0.266	0.279	0.286	0.182	0.193	0.916	0.966	0.906	0.945	0.566	0.515	0.644	0.567	0.115	0.106	0.214	0.127	0.129
SK-MES-1	0.394	0.454	0.414	0.294	0.291	0.842	0.926	0.97	0.865	0.97	0.962	1.04	1.06	0.285	0.34	0.33	0.202	0.35
SW 1573	0.466	0.508	0.526	0.336	0.307	0.844	0.974	0.941	0.862	0.893	0.845	0.88	0.819	0.415	0.459	0.445	0.304	0.447
NCI-H661	0.615	0.555	0.61	0.428	0.387	1.04	0.972	1.06	0.995	0.995	0.9	1.24	0.922	0.326	0.353	0.484	–	0.356
PC-3 [JPC-3]	0.556	0.694	0.65	0.564	0.55	1.03	1.03	1.14	0.992	0.972	0.974	1.11	0.869	0.601	0.743	0.739	0.652	0.681
NCI-H1623	–	–	–	–	–	0.903	0.94	0.848	0.768	–	–	–	–	–	–	–	–	–
Calu-6	–	–	–	–	–	0.867	0.865	0.983	0.903	0.75	0.676	0.814	0.67	0.823	0.85	0.846	0.673	0.937
LC-2-ad	0.864	0.886	0.942	0.798	0.614	0.813	0.938	0.956	0.974	0.398	0.484	0.475	0.43	0.36	0.426	0.504	0.236	0.567
CAL-12T	0.308	0.276	0.234	0.185	0.302	1.01	1.15	1.38	0.941	0.529	0.464	0.753	0.477	0.395	–	0.571	0.291	0.432
RERF-LC-KJ	0.767	0.764	0.74	0.682	0.584	0.905	0.927	0.904	0.857	0.721	0.82	0.872	0.853	0.492	0.488	0.502	0.535	0.7
NCI-H1650	0.62	0.455	0.614	0.546	0.527	1.11	1.06	1.31	0.755	1	0.903	1.2	0.892	0.55	–	0.664	0.398	0.843
BEN	0.898	0.947	1.02	0.866	0.817	0.908	0.786	0.91	0.972	0.923	0.892	0.944	0.963	0.607	0.506	0.655	0.434	0.557
EMC-BAC-2	0.841	0.956	0.893	0.667	0.706	0.956	0.973	1.05	1.01	0.729	0.747	0.843	0.824	0.487	0.51	0.505	0.374	0.555

Cell Line	relative viability (AZD6482 + Trametinib; first compound 0.08 µM)	relative viability (AZD6482 + Trametinib; first compound 0.253 µM)	relative viability (AZD6482 + Trametinib; first compound 0.8 µM)	relative viability (AZD6482 + Trametinib; first compound 2.53 µM)	relative viability (AZD6482 + Trametinib; first compound 8 µM)	relative viability ([1]; first compound 0.2 µM)	relative viability ([1]; first compound 0.6325 µM)	relative viability ([1]; first compound 2 µM)	relative viability ([1]; first compound 6.325 µM)	relative viability ([2]; first compound 0.2 µM)	relative viability ([2]; first compound 0.6325 µM)	relative viability ([2]; first compound 2 µM)	relative viability ([2]; first compound 6.325 µM)	relative viability (AZD6482 + Pictilisib; first compound 0.08 µM)	relative viability (AZD6482 + Pictilisib; first compound 0.253 µM)	relative viability (AZD6482 + Pictilisib; first compound 0.8 µM)	relative viability (AZD6482 + Pictilisib; first compound 2.53 µM)	relative viability (AZD6482 + Pictilisib; first compound 8 µM)
LU99A	0.457	0.478	0.539	0.568	0.475	0.895	0.864	0.821	0.803	0.563	0.576	0.553	0.56	0.339	0.335	0.366	0.25	0.34
ABC-1	–	–	–	–	–	1.04	1.35	1.32	0.996	1.01	1.01	1.05	1.15	0.789	0.623	0.773	0.686	0.736
NCI-H2170	0.878	0.879	0.844	0.836	0.733	0.982	0.955	0.996	1.01	1.19	1.17	1.23	1.24	0.285	0.261	0.307	0.258	0.317
NCI-H1299	–	–	–	–	–	1.07	1.07	1.13	1.06	0.945	0.976	0.94	0.909	0.615	0.684	0.742	0.394	0.678
EBC-1	–	–	–	–	–	0.1	0.117	0.114	0.107	0.241	0.181	0.147	0.177	0.314	0.295	0.209	0.197	0.292
NCI-H2347	0.276	0.271	0.222	0.265	0.238	0.791	0.834	1.02	1	0.794	0.675	0.634	0.626	–	0.75	0.559	0.393	0.421
NCI-H1993	0.506	0.498	0.446	0.52	0.475	0.801	0.735	0.756	0.912	0.796	0.839	0.882	0.834	0.907	0.779	–	–	0.769
NCI-H322M	0.51	0.534	0.58	0.452	0.443	0.899	0.94	1.05	0.923	0.873	1.01	0.973	0.915	0.485	0.399	0.475	0.353	0.498
NCI-H838	0.419	0.494	0.451	0.316	0.336	1.08	1.17	1.06	1.03	0.81	0.878	0.873	0.828	0.461	0.464	0.442	0.339	0.487
HARA	0.538	0.496	0.453	0.336	0.352	0.973	0.9	0.92	0.92	1.01	1.02	1.18	1.13	0.254	0.395	0.423	–	0.59
NCI-H1648	0.483	0.434	0.491	–	0.365	–	–	–	–	–	–	–	–	–	–	–	–	–
NCI-H1792	0.322	0.377	0.41	0.251	0.283	–	–	–	–	0.994	1.04	0.975	1.08	0.224	0.237	0.288	0.191	0.213
HCC-44	0.926	1.07	1.08	1.08	0.858	–	–	–	–	0.839	0.721	0.813	0.819	0.416	0.589	0.567	0.452	0.531
NCI-H1793	0.37	0.397	0.352	0.32	0.283	0.591	0.882	0.848	0.701	–	–	–	–	0.261	0.336	0.293	–	0.259
A549	–	–	–	–	–	0.951	0.966	0.997	0.763	0.803	0.638	0.966	0.736	0.522	0.472	0.523	0.264	0.386
NCI-H1563	–	–	–	–	–	1.03	0.944	0.973	0.824	0.829	0.853	0.809	0.794	0.617	0.575	0.646	0.677	0.673
NCI-H1395	0.949	0.8	0.785	0.522	0.627	0.895	1	0.93	0.858	–	–	–	–	0.549	0.459	0.536	0.422	0.438
NCI-H522	0.872	0.711	0.841	0.549	0.566	–	–	–	–	–	–	–	–	–	–	–	–	–
IA-LM	–	–	–	–	–	1.13	0.807	1.34	1.16	–	0.802	0.926	0.42	0.342	0.247	0.338	–	0.366
NCI-H1703	–	–	–	–	–	0.313	0.317	0.412	0.448	1	0.45	0.868	0.526	0.245	0.239	0.233	0.204	0.191
SW 900	0.851	0.591	0.703	0.43	0.568	0.679	1.15	0.779	0.857	–	–	–	–	–	–	–	–	–
